Test results from patent US6649784B2, “Aspartyl dipeptide ester derivatives and sweeteners” (Ajinomoto Co., Inc., priority 1999, dated 2003).

Legend:
[1] = times that of sucrose/sugar; reported in WO 94/11391 (b9: compared with 2, 5 and 10% sucrose solutions); cited from earlier work
[2] = organoleptic (sensory) test of sweetening potency; settings: for Sweetening potency: value compared with a 4% sucrose aqueous solution
Source text: For example, a sweetening potency of N-[N-[3-(3,4-dihydroxyphenyl)-3-methylbutyl]-L-α-aspartyl]-L-phenylalanine 1-methyl ester was approximately 50,000 times (relative to sugar), and a sweetening potency of N-[N-[3-(3,4,5-trihydroxyphenyl)propyl]-L-α-aspartyl]-L-phenylalanine 1-methyl ester was approximately 25,000 times (relative to sugar).
The structures and the results of the sensory test on some aspartyl dipeptide ester derivatives (represented by the following general formula (1)) formed are shown in Table 1.

Row | Compound | sweetening potency (degree of sweetness) [1] | Sweetening potency (relative to sugar) [2] | Sweetening potency [2] | other results
1 | COC(=O)[C@H](Cc1ccccc1)NC(=O)[C@H](CC(=O)O)NCCC(C)c1ccccc1 (mixture of isomers) [N-[N-[(RS)-3-phenylbutyl]-L-α-aspartyl]-L-phenylalanine 1-methyl ester] | 1,200 times | – | – | –
2 | COC(=O)[C@H](Cc1ccccc1)NC(=O)[C@H](CC(=O)O)NCCCc1ccc(O)cc1O [Compound 1, N-[N-[3-(2,4-dihydroxyphenyl)propyl]-L-α-aspartyl]-L-phenylalanine 1-methyl Ester] | – | 10,000 times | 10000 | –
3 | COC(=O)[C@H](Cc1ccccc1)NC(=O)[C@H](CC(=O)O)NCCCc1ccc(O)c(O)c1 [Compound 2, N-[N-[3-(3,4-dihydroxyphenyl)propyl]-L-α-aspartyl]-L-phenylalanine 1-methyl Ester] | – | 15,000 times | 15000 | –
4 | COC(=O)[C@H](Cc1ccccc1)NC(=O)[C@H](CC(=O)O)NCCCc1ccc(O)c(O)c1O [Compound 3, N-[N-[3-(2,3,4-trihydroxyphenyl)propyl]-L-α-aspartyl]-L-phenylalanine 1-methyl Ester] | – | 10,000 times | 10000 | –
5 | COC(=O)[C@H](Cc1ccccc1)NC(=O)[C@H](CC(=O)O)NCCCc1cc(O)c(O)c(O)c1 [Compound 4, N-[N-[3-(3,4,5-trihydroxyphenyl)propyl]-L-α-aspartyl]-L-phenylalanine 1-methyl Ester] | – | – | 25000 | Sweetening potency (relative to sugar) ([2]; listed as Example 4): 25,000 times; Sweetening potency (relative to sugar) ([2]; listed as N-[N-[3-(3,4,5-trihydroxyphenyl)propyl]-L-α-aspartyl]-L-phenylalanine 1-methyl e): approximately 25,000 times
6 | COC(=O)[C@H](Cc1ccccc1)NC(=O)[C@H](CC(=O)O)NCCC(C)(C)c1ccc(O)c(O)c1 [Compound 5, N-[N-[3-(3,4-dihydroxyphenyl)-3-methylbutyl]-L-α-aspartyl]-L-phenylalanine 1-methyl Ester] | – | – | 50000 | Sweetening potency (relative to sugar) ([2]; listed as Example 5): 50,000 times; Sweetening potency (relative to sugar) ([2]; listed as N-[N-[3-(3,4-dihydroxyphenyl)-3-methylbutyl]-L-α-aspartyl]-L-phenylalanine 1-met): approximately 50,000 times
7 | COC(=O)[C@H](Cc1ccccc1)NC(=O)[C@H](CC(=O)O)NCCC(C)(C)C [N-[N-(3,3-dimethylbutyl)-L-α-aspartyl]-L-phenylalanine 1-methyl ester] | 10,000 times | – | – | –
8 | COC(=O)[C@H](Cc1ccccc1)NC(=O)[C@H](CC(=O)O)NCCCc1ccccc1 [N-[N-(3-phenylpropyl)-L-α-aspartyl]-L-phenylalanine 1-methyl ester] | 1,500 times | – | – | –
9 | COC(=O)[C@H](Cc1ccccc1)NC(=O)[C@H](CC(=O)O)NCCCc1ccc(O)c(OC)c1 [N-[N-[3-(3-methoxy-4-hydroxyphenyl)propyl]-L-α-aspartyl]-L-phenylalanine 1-methyl ester] | 2,500 times | – | – | –
